Source: PubChem BioAssay AID2305 (GlaxoSmithKline (GSK), 2010)

These molecules were tested on P. falciparum 3D7 growth, pLDH absorbance (assay: P. falciparum 3D7 growth inhibition, dose response, strain 3D7 (AID 2305)).
CC(C)c1ccc(NC(=S)NN=Cc2ccccn2)cc1 gave an IC50 of 720 nM. With O=C(Nc1cccc(-c2ccc(-c3nc4ccccc4[nH]3)s2)c1)c1ccncc1 the IC50 was 780 nM. For CN1CCN(c2ccc(CNc3ccc4ncc(-c5ccc(OC(F)(F)F)cc5)n4n3)cc2)CC1, the IC50 was 830 nM. Work on Cc1noc(C)c1-c1cccc(CNCc2ccc(-c3ccc(-c4nc5ccc(F)cc5[nH]4)cc3)cc2)c1 yielded an IC50 of 210 nM. Molecule COc1ccc(-c2cc(-c3ccc(S(C)(=O)=O)cc3)cnc2N)cn1 has an IC50 of 190 nM. In the case of O=C(NCCCCN1CCC(c2ccc3c(c2OCCO)CCCC3)CC1)c1ccc2oc(-c3ccc(C(F)(F)F)cc3)cc2c1, the IC50 is reported as 340 nM. Molecule O=C(NCCNc1ccnc(Nc2ccc(F)cc2)n1)c1cc2ccccc2s1 has an IC50 of 750 nM. Molecule O=C(/C=C/c1ccc(Cl)c(Cl)c1)NCCCCCCN1CCCN(C(=O)Nc2cc(Cl)cc(Cl)c2)CC1 has an IC50 of 780 nM. For COc1ccc(C2CCN(CCCCNC(=O)c3ccc(NC(=O)c4ccc(Cl)cc4)cc3)C2)c(OC)c1 (stereo not drawn), the IC50 was 1200 nM. In the case of COc1ccc(NC(=O)/C=C/c2ccccc2Cl)cc1OCCN1CCC(c2nc3ccccc3[nH]2)CC1, the IC50 is reported as 860 nM. Work on CC(Cc1ccc(NC(=O)CCNCc2ccccc2)cc1)NCCc1cccc(Cl)c1 (stereo not drawn) yielded an IC50 of 150 nM. For O=C(Nc1ccc(F)c(C(F)(F)F)c1)N[C@H]1CCN(CCCCCNC(=O)[C@@H]2C[C@H]2c2ccc(Cl)c(Cl)c2)C1, the IC50 was 160 nM. Molecule CCCCN(CCCC)C(=NCCCCCCN=C(/N=C(/N)Nc1ccc(Cl)cc1)N(CCCC)CCCC)/N=C(/N)Nc1ccc(Cl)cc1 has an IC50 of 790 nM. Cc1ccc(NC(=O)Nc2ccccc2F)cc1-c1ccc(C(=O)Nc2ccncc2)cc1 gave an IC50 of 560 nM. CS(=O)(=O)NCCCNCc1cccc(-c2cccc(-c3nc4ccc(C(F)(F)F)cc4[nH]3)c2)c1 was tested, and the IC50 was 470 nM. With COc1ccc(-c2cnc3ccc(NCCCO)nn23)cc1OC the IC50 was 670 nM. With CN1CCCN(Cc2ccc(-c3ccc(NS(=O)(=O)c4cccc5cccnc45)cc3)cc2)CC1 the IC50 was 690 nM. In the case of Fc1cccc(COc2ccc(Nc3ncnc4sc(C#Cc5ncc[nH]5)cc34)cc2Cl)c1, the IC50 is reported as 130 nM. CC1CCN(CCNC(=O)c2ccc3c(=O)n(Cc4ccc(Cl)cc4)c(=S)[nH]c3c2)CC1 gave an IC50 of 700 nM. Molecule COc1ccc(Cc2cccc(C(C(=O)NCc3cc(Cl)cc(Cl)c3)N3CCN(C)CC3)c2)cc1 (stereo not drawn) has an IC50 of 690 nM. COc1ccc(CCNC(=O)c2cnc3c(c2)nc(-c2cnc(-c4ccccc4)[nH]2)n3CCc2cnc[nH]2)cc1 showed an IC50 of 970 nM. With COCn1ncc2cc(-c3cccc(NC(=O)c4csc(NC(C)=O)n4)c3)ccc21 the IC50 was 990 nM. CC(C)(C)CCN1CCC(NC(=O)c2ccc(-c3cccc(C(F)(F)F)c3)s2)CC1 was tested, and the IC50 was 760 nM. In the case of Clc1ccc2c(NCCc3ccccn3)ccnc2c1, the IC50 is reported as 830 nM. CC(C)(CNC(=O)/C=C/c1ccc(Cl)c(Cl)c1)CNc1cc(=O)c2ccccc2[nH]1 was tested, and the IC50 was 860 nM. For Cn1cncc1CCN(Cc1ccc(-c2ccc(C(F)(F)F)cc2)cc1)C(=O)Cn1c(SCc2cccc(F)c2F)cc(=O)c2ccccc21, the IC50 was 990 nM. O=C(C=Cc1ccc(-c2ccccc2)cc1)N1CCC(CCN2CCC(c3c[nH]c4ccccc34)CC2)CC1 showed an IC50 of 1120 nM. CN1CCC(C(=O)N(Cc2ccc(-c3ccc(CNCCc4ccc(S(C)(=O)=O)cc4)cn3)cc2)C2CCN(Cc3ccccc3)CC2)CC1 showed an IC50 of 670 nM. COC(=O)c1ccc(N2CCN(CCCCNC(=O)c3ccc(NC(=O)c4ccc(Cl)cc4)cc3)CC2)c(OC)c1 gave an IC50 of 1300 nM. COc1ccc(CNCc2ccc(F)cc2)cc1-c1ccc(S(=O)(=O)NCCN2CCCC2)cc1 showed an IC50 of 1040 nM. With Cn1cnc2c(Nc3ccncc3)nc(-c3ccc(OC(F)(F)F)cc3)nc21 the IC50 was 1100 nM. COc1c(F)cc(CC(C)NCC(O)c2cccc(Cl)c2)cc1F (stereo not drawn) showed an IC50 of 1160 nM. In the case of Cc1cccc2[nH]c(-c3ccc(-c4cccc(CN5CCC(C(N)=O)CC5)c4)cc3)nc12, the IC50 is reported as 1770 nM. Work on CCCc1ccc(NC(=O)c2ccc(CN3CCCN(CC4CCCCC4)CC3)cc2)cc1 yielded an IC50 of 520 nM. With COc1ccc2nc(N3CCN(C(=O)OC(C)(C)C)CC3)nc(NCCCc3ccccc3)c2c1 the IC50 was 690 nM. CN(Cc1ccc(C#N)cc1)C1CCN(c2cc(NC(=O)c3ccc(F)cc3)ccn2)CC1 was tested, and the IC50 was 1430 nM. COc1ccc2nc(NC3=NC(c4ccccn4)(c4ccccn4)C(=O)N3C)[nH]c2c1 was tested, and the IC50 was 590 nM. Cc1cc(F)ccc1[C@H]1CNCCN1C(=O)N(C)[C@@H](C)c1cc(C(F)(F)F)cc(C(F)(F)F)c1 gave an IC50 of 230 nM. With NC(=O)c1ccc(-n2cnc3cc(F)ccc32)cc1OCc1ccccc1C(F)(F)F (tested in a mixture with another compound) the IC50 was 360 nM. Molecule CC(C)OC(=O)c1ccc(NC(=O)N[C@@H](Cc2ccc(O)cc2)C(=O)NC2CCC(CCN3[C@@H]4CC[C@H]3c3ccccc34)CC2)cc1 (stereo partly drawn) has an IC50 of 830 nM. CC[C@H](NC(=O)c1c(CCCN2CCN(c3ccccc3)CC2)c(-c2ccccc2)nc2cc(O)ccc12)c1ccccc1 was tested, and the IC50 was 780 nM. COc1ccc(-c2ccc(CNC(=O)c3cccc(C#N)c3)c(F)c2)cc1CN1CCCN(C)CC1 showed an IC50 of 800 nM. Work on O=S(=O)(Nc1ccc(CCN2CCCCC2CCN2CCCC2)cc1)c1cccc2cccnc12 (stereo not drawn) yielded an IC50 of 1300 nM. In the case of Cc1nc(N)nc(N)c1-c1ccc(Cl)cc1, the IC50 is reported as 770 nM. CC(=O)C1(c2ccccc2)CCN(CCC(NC(=O)c2cc(C(F)(F)F)cc(C(F)(F)F)c2)c2ccc(Cl)c(Cl)c2)CC1 (stereo not drawn) showed an IC50 of 1190 nM. C[C@@H]1C[C@@H]([C@H](O)CC2CC(=O)NC(=O)C2)C(=O)[C@@H](C)C1 gave an IC50 of 530 nM. In the case of CC(C)(C)OC(=O)N1CCN(c2ccccc2NC(=O)c2cccc(C(F)(F)F)c2Oc2ccc(F)cc2)CC1, the IC50 is reported as 860 nM. For O=C(NCC1CCCCC1)c1cc(=O)c2ccccc2o1, the IC50 was 320 nM.
